In patent US20120190707A1, “SELECTIVE INHIBITORS OF AKT AND METHODS OF USING SAME” (priority 2008, published 2012):

Legend:
p53 = experiment: Levels of HSP90 client protein p53; format: cell-based; conditions: data not shown
Excerpt: (§1) Among cellular proteins implicated in the regulation of AKT levels is the cellular chaperone HSP90. Inhibition of HSP90 chaperone function, as commonly achieved by the geldanamycin antibiotic, interferes with the conformational maturation and refolding of its associated proteins, thereby promoting their degradation (Munster et al., 2002; Neckers and Neckers, 2003). […] Thus we assessed whether association of AKT with HSP90 could be affected by BI-69A11. Immunoprecipitation of AKT from melanoma cells identified HSP90 in the immunoprecipitated material. Such association was however abolished following treatment with the BI-69A11 inhibitor (FIG. 6C). […] To this end, we also performed the experiment in the presence of the proteasome inhibitor MG132.

AKT = experiment: pAKT473 and total AKT by western analysis in 29-1 (PTEN+) cells; format: cell-based, human; conditions: 29-1 cells
Protocol: FIG. 6 describes the effect of BI-69A11 on phosphorylation and total levels of AKT in UACC 903 (PTEN−) cells. (A) UACC903 and the modified clone 29-1 (PTEN+) cells were exposed to 10 micro.M BI-69A11 and 50 micro.M LY294002 (a PI3K inhibitor) and the levels of pAKT473 and total AKT determined by western analysis. […] (SF=Serum Free). (B) BI-69A11 inhibits PRAS40 phosphorylation. UACC903 melanoma cells or 29-1 cells (PTEN+) were subjected to treatment with IGF-1 (20 ng/mL) and the level of PRAS40 phosphorylation was assessed. […] The cells were collected, lysed and levels of pPRAS40 and total PRAS40 determined by western analysis. (C) AKT association with HSP90 is inhibited by BI-69A11. Human melanoma cells were treated with BI-69A11 (10.micro.M) or DMSO control for 4 h, followed by protein preparation and immunoprecipitation using antibodies to pan-AKT. MG132 treatment, when used, initiated 1 h prior to treatment and lasted up to the preparation of proteins (total of 5 h). The right panel depicts analysis of total lysates.
The term “cell lines”, as used herein, unless otherwise indicated, refer to UACC 903 cells and 29-1 cells. The cells were cultured in DMEM, supplemented with 10% FBS and maintained at 37° C. in 5% CO2. Cells were plated to 75% confluency and grown overnight at 37° C. […]

PC3 prostate tumor cells = experiment: Cell death by trypan blue staining, PC3; format: cell-based; conditions: PC3, 5 micro.M, within 4 hours
Protocol: (A) MeWo melanoma cells growing in 60 mm plates were treated with the indicated concentration of the inhibitor for 4 h before proteins were prepared for western blot analysis using the indicated antibodies. Level of beta.actin was monitored as a control for protein loading. (B) Experiment was performed as indicated in panel A, except that cells were harvested after 24 h for analysis of cell death using trypan blue staining. (C) Melanoma (MeWo), prostate cancer (PC3) and breast cancer (MCF7) cells were treated with BI-69A11 at the indicated concentrations; levels of AKT phosphorylation or expression were assessed 4 h later. The level of beta.actin used as a control for protein loading. (D) Experiment was performed as indicated in panel C, except that cells were harvested after 4 h for analysis of cell death using trypan blue staining.
For the proliferation assays, cells were treated as described above. However, instead of scraping cells into the serum-free medium, floating cells were collected in a 15 mL centrifuge tube whereas adherent cells trypsinized gently. The total cell population was pooled and counted on a hemocytometer after staining with Trypan Blue.

NF-kB pathway = experiment: TNF-α stimulated NF-kB pathway (IKK, IkB) western analysis in UACC903 cells; format: cell-based, human; conditions: 10 μM for 1 h prior to 20 ng/ml TNF-α
Protocol: UACC903 melanoma cells were exposed to 10 μM BI-69A11 or vehicle control for 1 h prior to treatment with 20 ng/ml TNF-α. Cells were harvested at the indicated time points and whole cell lysates were subjected to western analysis for phosphorylated IKK, total IKK, phosphorylated IkB, total IkB, and PLCγ (as loading control).
FIG. 11 describes how selected BI-69A11 analogs inhibit the NFkB pathway. UACC903 melanoma cells were exposed to vehicle control, 10 μM BI-69A11, or 10 μM analog for 1 h prior to stimulation with 20 ng/ml TNF-α as indicated. Cells were harvested at 5 min post-stimulation and whole cell lysates were subjected to western analysis for phosphorylated IKK, total IKK, phosphorylated IkB, total IkB, and […] (as loading control).
We first tested whether BI-69A11 inhibited the activation of the canonical NF-kB pathway (FIG. 10) in intact cells. […] In contrast, in cells treated with BI-69A11, both IKK and IkB phosphorylation were inhibited in response to TNF-a stimulation. Furthermore, the degradation of IkB protein was inhibited.
We next tested the ability of selected BI-69A11 analogs to inhibit the NF-kB pathway (FIG. 11). In this experiment, UACC903 cells were treated with vehicle, BI-69A11 or analog, stimulated with TNF-a, and harvested at 5 minutes post-stimulation. […]

c-Jun = experiment: Levels of HSP90 client protein c-Jun; format: cell-based; conditions: data not shown
Excerpt: as §1

Initial MTD assays = conditions: in vivo, 5 mg/kg; data not shown; read-out: dose at which MTD assays revealed toxicity

With `O=C(/C=C/c1nc2ccccc2[nH]1)c1c(O)nc2ccc(Cl)cc2c1-c1ccccc1` [Compound 2, (E)-3-(3-(1H-benzo[d]imidazol-2-yl)acryloyl)-6-chloro-4-phenylquinolin-2(1H)-one] the “level of p53” value (p53) was “limited effect”, the AKT phosphorylation (AKT) was “limited to no effect” and the “levels of total AKT” value (AKT; 10 micro.M, increasing time after treatment) was “reduced levels of total AKT”. For the same compound, the cell death (PC3 prostate tumor cells) was “about 25%”, the “degradation of IkB protein” value (NF-kB pathway) was “inhibited” and the “IKK and IkB phosphorylation in response to TNF-a stimulation” value (NF-kB pathway; time course) was “inhibited”. For the same compound, the c-Jun protein levels (c-Jun) was “did not affect” and the MTD (Initial MTD assays) was 5 mg/kg.
